Experimental data taken from patent US6653455B1, “Crystallization of doxorubicin hydrochloride” (Mercian Corporation, priority 1998, dated 2003).
Structures can show the parent of a compound that is named as a salt. Marks after values point to notes of the source that are not given here.

Legend:
Assay type in all cases: physicochemical
[1] = Solubility test (dissolving time in water); conditions: 50 mg sample in 5 ml water, 25° C., about 600 rounds/minute stirring, time until completely dissolved; hydrochloride
Method: A beaker of 20 ml (minor diameter: 30 mm) was charged with 5 ml of water and then 50 mg of a DOX.HCl crystal sample, and the sample was stirred at 25° C. and about 600 rounds/minute by means of a magnetic stirrer (diameter 6 mm×length 10 mm). Time consumed until the sample was completely dissolved was measured wile observing the dissolving state every 30 seconds with naked eyes.
The solubility test described above was carried out for a DXR.USP standard product (Lot J) (average particle diameter: 28 μm) as comparison and Examples 2, 46,51, 55, 56, 57 and 58, and the results thereof are shown in Table III.

[2] = Average particle diameter, microscopic method (Heywood circle-corresponding diameter); conditions: 10 typical crystals on photograph, hydrochloride
From the text: The average particle diameter is shown by a diameter of a circle having the same area as an injected area of the particle, a so-called Heywood diameter (circle-corresponding diameter) according to a microscopic method (injected image). A small amount of the crystals was put on a slide glass, and 1 to 2 drops of a hydrophilic surfactant (sesquioleic acid sorbitan) were fallen thereon to disperse them. It was photographed by means of a polarization microscope (photographing lens: 3.3 magnifications, objective lens: 20 magnifications) equipped with a photographing device. Optional 10 pieces of the typical crystals were selected on the photograph to measure a long diameter and a short diameter thereof An (projected) area of the particle was shown by long diameter×short diameter, and the particle diameter was shown by a diameter of a circle having the same area as that obtained above.

[3] = Hygroscopicity, cup method (weight change); conditions: weight-increasing rate, 25° C., 50 to 60% RH, 15 minutes; crystals dried at 40° C. under vacuum; hydrochloride
Method: Determined by the following cup method. To be specific, about 15 to 20 mg of the sample was put in a cylindrical cup having a diameter of 6 mm and a depth of 6 mm and left standing at a fixed temperature (25° C.) and relative humidity (50 to 60% RH) for 15 minutes to measure a weight change, whereby the hygroscopicity was evaluated.
In the following respective examples, a weight-increasing rate of 0.40% or more is shown by an evaluation criterion that the hygroscopicity is large (−); a weight-increasing rate of 0.20% or more and less than 0.40% is shown by an evaluation criterion that the hygroscopicity is ;intermediate (±); and a weight-increasing rate of less than 0.20% is shown by an evaluation criterion that the hygroscopicity is small: (+).

SMILES | Dissolving time [1] | Average particle diameter ([2]; listed as DXR.USP standard product (Lot J)) [μm] | Average particle diameter [2] [μm] | Hygroscopicity [3]
COc1cccc2c1C(=O)c1c(O)c3c(c(O)c1C2=O)C[C@@](O)(C(=O)CO)C[C@@H]3O[C@H]1C[C@H](N)[C@H](O)[C@H](C)O1 [DXR.USP (comparison), doxorubicin hydrochloride] | 3-3.5* minute | 28 | – | –
COc1cccc2c1C(=O)c1c(O)c3c(c(O)c1C2=O)C[C@@](O)(C(=O)CO)C[C@@H]3O[C@H]1C[C@H](N)[C@H](O)[C@H](C)O1 [Example 2, doxorubicin hydrochloride] | 4 to 4.5 min | – | <4 | − (a weight-increasing rate of 0.40% or more is shown by an evaluation criterion that the hygroscopicity is large (−))
COc1cccc2c1C(=O)c1c(O)c3c(c(O)c1C2=O)C[C@@](O)(C(=O)CO)C[C@@H]3O[C@H]1C[C@H](N)[C@H](O)[C@H](C)O1 [Example 20, doxorubicin hydrochloride] | – | – | 7 | + (a weight-increasing rate of less than 0.20% is shown by an evaluation criterion that the hygroscopicity is small: (+))
COc1cccc2c1C(=O)c1c(O)c3c(c(O)c1C2=O)C[C@@](O)(C(=O)CO)C[C@@H]3O[C@H]1C[C@H](N)[C@H](O)[C@H](C)O1 [Example 21, doxorubicin hydrochloride] | – | – | 54 | + (a weight-increasing rate of less than 0.20% is shown by an evaluation criterion that the hygroscopicity is small: (+))
COc1cccc2c1C(=O)c1c(O)c3c(c(O)c1C2=O)C[C@@](O)(C(=O)CO)C[C@@H]3O[C@H]1C[C@H](N)[C@H](O)[C@H](C)O1 [Example 22, doxorubicin hydrochloride] | – | – | 47 | + (a weight-increasing rate of less than 0.20% is shown by an evaluation criterion that the hygroscopicity is small: (+))
COc1cccc2c1C(=O)c1c(O)c3c(c(O)c1C2=O)C[C@@](O)(C(=O)CO)C[C@@H]3O[C@H]1C[C@H](N)[C@H](O)[C@H](C)O1 [Example 23, doxorubicin hydrochloride] | – | – | 39 | ± (a weight-increasing rate of 0.20% or more and less than 0.40% is shown by an evaluation criterion that the hygroscopicity is ;intermediate (±))
COc1cccc2c1C(=O)c1c(O)c3c(c(O)c1C2=O)C[C@@](O)(C(=O)CO)C[C@@H]3O[C@H]1C[C@H](N)[C@H](O)[C@H](C)O1 [Example 24, doxorubicin hydrochloride] | – | – | 51 | + (a weight-increasing rate of less than 0.20% is shown by an evaluation criterion that the hygroscopicity is small: (+))
COc1cccc2c1C(=O)c1c(O)c3c(c(O)c1C2=O)C[C@@](O)(C(=O)CO)C[C@@H]3O[C@H]1C[C@H](N)[C@H](O)[C@H](C)O1 [Example 28, doxorubicin hydrochloride] | – | – | 37 | + (a weight-increasing rate of less than 0.20% is shown by an evaluation criterion that the hygroscopicity is small: (+))
COc1cccc2c1C(=O)c1c(O)c3c(c(O)c1C2=O)C[C@@](O)(C(=O)CO)C[C@@H]3O[C@H]1C[C@H](N)[C@H](O)[C@H](C)O1 [Example 30, doxorubicin hydrochloride] | – | – | 39 | + (a weight-increasing rate of less than 0.20% is shown by an evaluation criterion that the hygroscopicity is small: (+))
COc1cccc2c1C(=O)c1c(O)c3c(c(O)c1C2=O)C[C@@](O)(C(=O)CO)C[C@@H]3O[C@H]1C[C@H](N)[C@H](O)[C@H](C)O1 [Example 32, doxorubicin hydrochloride] | – | – | 34 | + (a weight-increasing rate of less than 0.20% is shown by an evaluation criterion that the hygroscopicity is small: (+))
COc1cccc2c1C(=O)c1c(O)c3c(c(O)c1C2=O)C[C@@](O)(C(=O)CO)C[C@@H]3O[C@H]1C[C@H](N)[C@H](O)[C@H](C)O1 [Example 33, doxorubicin hydrochloride] | – | – | 25 | ± (a weight-increasing rate of 0.20% or more and less than 0.40% is shown by an evaluation criterion that the hygroscopicity is ;intermediate (±))
COc1cccc2c1C(=O)c1c(O)c3c(c(O)c1C2=O)C[C@@](O)(C(=O)CO)C[C@@H]3O[C@H]1C[C@H](N)[C@H](O)[C@H](C)O1 [Example 34, doxorubicin hydrochloride] | – | – | 23 | ± (a weight-increasing rate of 0.20% or more and less than 0.40% is shown by an evaluation criterion that the hygroscopicity is ;intermediate (±))
COc1cccc2c1C(=O)c1c(O)c3c(c(O)c1C2=O)C[C@@](O)(C(=O)CO)C[C@@H]3O[C@H]1C[C@H](N)[C@H](O)[C@H](C)O1 [Example 35, doxorubicin hydrochloride] | – | – | 20 | ± (a weight-increasing rate of 0.20% or more and less than 0.40% is shown by an evaluation criterion that the hygroscopicity is ;intermediate (±))
COc1cccc2c1C(=O)c1c(O)c3c(c(O)c1C2=O)C[C@@](O)(C(=O)CO)C[C@@H]3O[C@H]1C[C@H](N)[C@H](O)[C@H](C)O1 [Example 38, doxorubicin hydrochloride] | – | – | 28 | + (a weight-increasing rate of less than 0.20% is shown by an evaluation criterion that the hygroscopicity is small: (+))
COc1cccc2c1C(=O)c1c(O)c3c(c(O)c1C2=O)C[C@@](O)(C(=O)CO)C[C@@H]3O[C@H]1C[C@H](N)[C@H](O)[C@H](C)O1 [Example 40, doxorubicin hydrochloride] | – | – | 18 | ± (a weight-increasing rate of 0.20% or more and less than 0.40% is shown by an evaluation criterion that the hygroscopicity is ;intermediate (±))
COc1cccc2c1C(=O)c1c(O)c3c(c(O)c1C2=O)C[C@@](O)(C(=O)CO)C[C@@H]3O[C@H]1C[C@H](N)[C@H](O)[C@H](C)O1 [Example 42, doxorubicin hydrochloride] | – | – | 34 | + (a weight-increasing rate of less than 0.20% is shown by an evaluation criterion that the hygroscopicity is small: (+))
COc1cccc2c1C(=O)c1c(O)c3c(c(O)c1C2=O)C[C@@](O)(C(=O)CO)C[C@@H]3O[C@H]1C[C@H](N)[C@H](O)[C@H](C)O1 [Example 44, doxorubicin hydrochloride] | – | – | 28 | + (a weight-increasing rate of less than 0.20% is shown by an evaluation criterion that the hygroscopicity is small: (+))
COc1cccc2c1C(=O)c1c(O)c3c(c(O)c1C2=O)C[C@@](O)(C(=O)CO)C[C@@H]3O[C@H]1C[C@H](N)[C@H](O)[C@H](C)O1 [Example 45, doxorubicin hydrochloride] | – | – | 46 | + (a weight-increasing rate of less than 0.20% is shown by an evaluation criterion that the hygroscopicity is small: (+))
COc1cccc2c1C(=O)c1c(O)c3c(c(O)c1C2=O)C[C@@](O)(C(=O)CO)C[C@@H]3O[C@H]1C[C@H](N)[C@H](O)[C@H](C)O1 [Example 47, doxorubicin hydrochloride] | – | – | 60 | ± (a weight-increasing rate of 0.20% or more and less than 0.40% is shown by an evaluation criterion that the hygroscopicity is ;intermediate (±))
COc1cccc2c1C(=O)c1c(O)c3c(c(O)c1C2=O)C[C@@](O)(C(=O)CO)C[C@@H]3O[C@H]1C[C@H](N)[C@H](O)[C@H](C)O1 [Example 48, doxorubicin hydrochloride] | – | – | 89 | + (a weight-increasing rate of less than 0.20% is shown by an evaluation criterion that the hygroscopicity is small: (+))
COc1cccc2c1C(=O)c1c(O)c3c(c(O)c1C2=O)C[C@@](O)(C(=O)CO)C[C@@H]3O[C@H]1C[C@H](N)[C@H](O)[C@H](C)O1 [Example 49, doxorubicin hydrochloride] | – | – | 71 | + (a weight-increasing rate of less than 0.20% is shown by an evaluation criterion that the hygroscopicity is small: (+))
COc1cccc2c1C(=O)c1c(O)c3c(c(O)c1C2=O)C[C@@](O)(C(=O)CO)C[C@@H]3O[C@H]1C[C@H](N)[C@H](O)[C@H](C)O1 [Example 59, doxorubicin hydrochloride] | – | – | <4 | − (a weight-increasing rate of 0.40% or more is shown by an evaluation criterion that the hygroscopicity is large (−))
